# Test results: patent US8075922B2, “Method of co-infusing a deoxygenated hemoglobin containing blood substitute and inorganic nitrite” (Montana State University-Bozeman, priority 2002, dated 2011)
# Tested on: human patient
# Conditions: sodium nitrite in phosphate buffered saline infused at 1 micromole per minute, begun before red blood cell transfusion
structure (smiles),measurement,value
O=NO [sodium nitrite],adverse effect of red blood cell transfusion,without adverse effect
